Here are results for 32 compounds from ChEMBL document CHEMBL1268886, “Evaluation of amide replacements in CCR5 antagonists as a means to increase intrinsic permeability. Part 2: SAR optimization and pharmacokinetic profile of a homologous azacyle series” (Bioorg Med Chem Lett, 2010).

Data set [1] deals with Human immunodeficiency virus. Kind of data set: Antiviral activity against HIV. In kind it is functional, organism-based.
The target of data set [2] is C-C chemokine receptor type 5 (Homo sapiens, UniProt P51681). As to the kind of experiment: Inhibition of RANTES.
Data set [3] is described as follows: (§1) Apparent permeability of the compound from apical to basolateral side in human Caco-2 cell membrane after 21 days. Conditions: Caco-2, Papp. A general note: Passage across Caco-2 layers is used to estimate intestinal permeability.
A short description of data set [4]: Oral bioavailability in rat at 10 mg/kg, po and 1 mg/kg, iv. In kind it is ADME, organism-based. Conditions: in vivo.
Data set [5] is described as follows: Metabolic stability in dog liver microsomes assessed as intrinsic clearance. In kind it is ADME, Canis lupus familiaris, Microsome. Background: Liver microsomes are vesicles of endoplasmic reticulum, rich in cytochrome P450 enzymes.
Data set [6] can be described thus: Clearance in dog at 5 mg/kg, po and 1 mg/kg, iv. In kind it is ADME, organism-based, Canis lupus familiaris. Conditions: in vivo.
The target in data set [7] is Voltage-gated inwardly rectifying potassium channel KCNH2 (Homo sapiens, UniProt Q12809). As to the kind of experiment: Inhibition of human ERG.
A further data set relates to Rattus norvegicus. As to the kind of experiment: Clearance in rat at 10 mg/kg, po and 1 mg/kg, iv. In kind it is ADME, organism-based. Conditions: in vivo.
Data set [8] in a line: Metabolic stability in rat liver microsomes assessed as intrinsic clearance. In kind it is ADME, Microsome.
A short description of data set [9]: Half life in dog at 1 mg/kg, iv. In kind it is ADME, organism-based, Canis lupus familiaris. On the set-up: dose 1 mg/kg, route intravenous. As to conditions: in vivo.
Data set [10] in a line: Oral bioavailability in dog at 5 mg/kg, po and 1 mg/kg, iv. In kind it is ADME, organism-based, Canis lupus familiaris. Conditions: in vivo.
Data set [11] can be described thus: Half life in rat at 1 mg/kg, iv. In kind it is ADME, organism-based. Conditions: in vivo. Also on record: dose 1 mg/kg, route intravenous.
Data set [12] in a line: Cmax in rat at 10 mg/kg, po and 1 mg/kg, iv. In kind it is ADME, organism-based. As to conditions: in vivo.
Data set [13] in a line: Cmax in dog at 5 mg/kg, po and 1 mg/kg, iv. In kind it is ADME, organism-based, Canis lupus familiaris. Conditions: in vivo.
Data set [14] is described as follows: Metabolic stability in human liver microsomes assessed as intrinsic clearance. In kind it is ADME, Microsome.
The next data set concerns Caco-2. The data set is described as §1. As to conditions: caco-2.

C-C chemokine receptor type 5, sequence (P51681 whole entry): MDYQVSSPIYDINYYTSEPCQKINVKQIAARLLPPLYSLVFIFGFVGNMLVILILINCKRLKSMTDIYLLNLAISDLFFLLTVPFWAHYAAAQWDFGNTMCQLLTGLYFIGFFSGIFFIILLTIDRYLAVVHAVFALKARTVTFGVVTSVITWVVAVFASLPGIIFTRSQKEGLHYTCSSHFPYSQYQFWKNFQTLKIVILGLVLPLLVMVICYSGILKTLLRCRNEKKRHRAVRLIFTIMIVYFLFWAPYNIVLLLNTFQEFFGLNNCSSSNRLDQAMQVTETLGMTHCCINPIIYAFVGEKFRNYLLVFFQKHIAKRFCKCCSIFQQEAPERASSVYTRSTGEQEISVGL
Voltage-gated inwardly rectifying potassium channel KCNH2, sequence (Q12809 whole entry): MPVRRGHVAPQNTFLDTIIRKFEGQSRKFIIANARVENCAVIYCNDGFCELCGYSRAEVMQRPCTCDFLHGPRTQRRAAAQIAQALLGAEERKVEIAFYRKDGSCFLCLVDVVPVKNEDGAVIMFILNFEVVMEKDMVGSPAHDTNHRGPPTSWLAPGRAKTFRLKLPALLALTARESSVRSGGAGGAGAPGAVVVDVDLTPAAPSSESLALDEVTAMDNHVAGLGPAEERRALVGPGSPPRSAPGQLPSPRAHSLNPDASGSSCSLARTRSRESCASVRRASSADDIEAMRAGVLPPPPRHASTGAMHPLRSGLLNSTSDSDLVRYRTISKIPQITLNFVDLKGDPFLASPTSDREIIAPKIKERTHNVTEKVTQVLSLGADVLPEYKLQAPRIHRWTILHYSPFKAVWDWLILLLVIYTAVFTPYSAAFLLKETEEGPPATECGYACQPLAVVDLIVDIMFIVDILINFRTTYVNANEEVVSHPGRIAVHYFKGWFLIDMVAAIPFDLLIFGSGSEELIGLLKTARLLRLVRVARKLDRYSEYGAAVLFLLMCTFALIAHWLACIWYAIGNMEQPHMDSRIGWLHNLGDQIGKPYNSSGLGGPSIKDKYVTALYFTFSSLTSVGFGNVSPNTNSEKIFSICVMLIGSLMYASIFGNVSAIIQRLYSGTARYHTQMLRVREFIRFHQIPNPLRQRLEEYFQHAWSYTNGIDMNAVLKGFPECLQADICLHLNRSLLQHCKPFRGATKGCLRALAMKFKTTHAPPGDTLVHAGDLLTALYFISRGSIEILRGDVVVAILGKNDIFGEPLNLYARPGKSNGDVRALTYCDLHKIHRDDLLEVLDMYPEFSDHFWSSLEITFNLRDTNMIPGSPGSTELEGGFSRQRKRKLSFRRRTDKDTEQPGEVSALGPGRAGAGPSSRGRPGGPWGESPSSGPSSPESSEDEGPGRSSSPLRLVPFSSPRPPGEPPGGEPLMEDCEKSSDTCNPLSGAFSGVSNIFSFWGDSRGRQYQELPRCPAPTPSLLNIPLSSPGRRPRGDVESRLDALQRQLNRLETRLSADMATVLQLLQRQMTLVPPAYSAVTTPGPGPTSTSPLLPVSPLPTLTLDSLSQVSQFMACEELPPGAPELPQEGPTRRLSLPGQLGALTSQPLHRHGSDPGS

As usually defined, the IC50 is the concentration needed to halve the response being measured. Higher therefore signals weaker potency in that assay. Take `Cc1ncnc(C)c1C(=O)N1C[C@H]2CN(CCC(c3cc(F)cc(F)c3)C3CN(S(=O)(=O)C4CC4)C3)C[C@H]2C1` (stereo not given in full): the results for the IC50 in data set [1] (Human immunodeficiency virus 1) and in data set [2] were 90 nM and 35 nM, respectively.

A word on the Papp A→B: it is the apparent permeability from the apical to the basolateral side of a cell layer. Turning to `Cc1ncnc(C)c1C(=O)N1C[C@H]2CN(CCC(c3ccccc3)C3CN(S(=O)(=O)C4CCCC4)C3)C[C@H]2C1` (stereo not given in full), the IC50 in data set [1] (Human immunodeficiency virus 1) came to 31 nM; in data set [2], 22 nM. Further, the Papp A→B in data set [3] was determined as 1.4 ×10⁻⁶ cm/s.

Take `Cc1ncnc(C)c1C(=O)N1C[C@H]2CN(CCC(c3cc(F)cc(F)c3)C3CCN(CC(F)F)CC3)C[C@H]2C1` (stereo not given in full): the IC50 in data set [1] (Human immunodeficiency virus 1) worked out at 20 nM; in data set [2], 25 nM.

For the compound `Cc1ncnc(C)c1C(=O)N1C[C@H]2CN(CCC(c3ccccc3)C3CN(C(=O)CC(C)C)C3)C[C@H]2C1` (stereo not given in full), in data set [2], the IC50 is over 500 nM.

On to `Cc1ncnc(C)c1C(=O)N1C[C@H]2CN(CCC(c3ccccc3)C3CN(S(=O)(=O)C4CC4)C3)C[C@H]2C1` (stereo not given in full), for which the IC50 worked out at 103 nM in data set [1] (Human immunodeficiency virus 1) and 40 nM in [2].

Turning to `Cc1ncnc(C)c1C(=O)N1C[C@H]2CN(CCC(c3cccc(F)c3)C3CCN(S(C)(=O)=O)CC3)C[C@H]2C1` (stereo in doubt; 44), the IC50 in data set [2] is over 500 nM.

The bioavailability is dose-corrected exposure relative to a reference, in per cent. Read a high bioavailability as much systemic uptake. By IC20 is commonly meant the point of the concentration-response curve where the effect stands at 20%. Broadly, the microsomal CLint is the capacity of the preparation to metabolise the compound, expressed as a volume cleared per time. The half-life is the time needed for the level to fall by half in the phase considered. The low end stands for fast loss, the high end for slow loss. Broadly, the Cmax is the maximum level reached in the sampled fluid or tissue. As to `Cc1ncnc(C)c1C(=O)N1C[C@H]2CN(CCC(c3cccc(F)c3)C3CCN(S(C)(=O)=O)CC3)C[C@H]2C1` (stereo in doubt; 43), the bioavailability in data set [4] was 6.6%; in data set [10], 96%. For the same compound, the clearance in data set [5] is 18 µL/min/mg; in [6], 31 mL/min/kg; in the data set on Rattus norvegicus it was 40 mL/min/kg. Moreover, the IC20 in data set [7] came to 15400 nM. For the same compound, the figures for the IC50 in [1] and in data set [2] were 17 nM and 32 nM, respectively. Further, the figures for the microsomal CLint in data set [8] and in data set [14] were 40 µL/min/mg and 60 µL/min/mg, respectively. In addition, the half-life was 4 h in [9] and 0.37 h in [11]. Also, the maximum concentration (Cmax) came out at 110 ng/mL in [12] and 1300 ng/mL in [13]. In addition, the Papp A→B in [3] is 0.5 ×10⁻⁶ cm/s.

`Cc1ncnc(C)c1C(=O)N1C[C@H]2CN(CCC(c3ccccc3)C3CN(CC(F)(F)F)C3)C[C@H]2C1` (stereo not given in full) registered an IC50 in data set [2] of over 500 nM.

The compound `Cc1ncnc(C)c1C(=O)N1C[C@H]2CN(CCC(c3ccccc3)C3CCN(C(=O)C(C)C)CC3)C[C@H]2C1` (stereo not given in full) returned an IC50 in [2] of 72 nM.

`Cc1ncnc(C)c1C(=O)N1C[C@H]2CN(CCC(c3ccccc3)C3CCN(CC(F)F)CC3)C[C@H]2C1` (stereo not given in full): the results for the IC50 in data set [1] (Human immunodeficiency virus 1) and in [2] were 55 nM and 27 nM, respectively.

For `Cc1ncnc(C)c1C(=O)N1C[C@H]2CN(CCC(c3cccc(F)c3)C3CCN(S(=O)(=O)c4ccccc4)CC3)C[C@H]2C1` (stereo not given in full), the IC50 in data set [1] (Human immunodeficiency virus 1) stood at 6 nM; in data set [2], 38 nM.

`Cc1ncnc(C)c1C(=O)N1C[C@H]2CN(CCC(c3ccccc3)C3CCN(S(C)(=O)=O)CC3)C[C@H]2C1` (stereo in doubt; 34): the concentration for half-maximal inhibition (IC50) amounted to 43 nM in data set [1] and 34 nM in data set [2]. Further, the Papp A→B in [3] worked out at 0.87 ×10⁻⁶ cm/s.

On to `CCC(=O)N1CCC(C(CCN2C[C@@H]3CN(C(=O)c4c(C)ncnc4C)C[C@@H]3C2)c2ccccc2)CC1` (stereo not given in full), for which, in data set [2], the IC50 came to 32 nM.

`CCS(=O)(=O)N1CCC(C(CCN2C[C@@H]3CN(C(=O)c4c(C)ncnc4C)C[C@@H]3C2)c2ccccc2)CC1` (stereo not given in full): the values for the IC50 in data set [1] (Human immunodeficiency virus 1) and in data set [2] were 39 nM and 25 nM, respectively.

As usually defined, the Papp is the rate of passage across a membrane or cell layer, normalised by area and donor concentration. In the case of `Cc1ncnc(C)c1C(=O)N1C[C@H]2CN(CCC(c3ccccc3)C3CCN(S(C)(=O)=O)CC3)C[C@H]2C1` (stereo in doubt; 41), the figures for the IC50 in data set [1] and in data set [2] were 42 nM and 25 nM, respectively. Besides, the apparent permeability (Papp) in the data set with Caco-2 is 0.5 ×10⁻⁶ cm/s.

Regarding `Cc1ncnc(C)c1C(=O)N1C[C@H]2CN(CCC(c3cccc(F)c3)C3CCN(CC(F)F)CC3)C[C@H]2C1` (stereo not given in full), the IC50 in data set [1] (Human immunodeficiency virus 1) is 14 nM; in data set [2], 35 nM.

In data set [2], `Cc1ncnc(C)c1C(=O)N1C[C@H]2CN(CCC(c3ccccc3)C3CCN(C(=O)CC(C)C)CC3)C[C@H]2C1` (stereo not given in full) yielded an IC50 of 68 nM.

The compound `COC(=O)N1CCC(C(CCN2C[C@@H]3CN(C(=O)c4c(C)ncnc4C)C[C@@H]3C2)c2ccccc2)CC1` (stereo not given in full) showed an IC50 in data set [2] of 102 nM.

Regarding `Cc1ncnc(C)c1C(=O)N1C[C@H]2CN(CCC(c3ccccc3)C3CCN(CC(F)(F)F)CC3)C[C@H]2C1` (stereo not given in full), the IC50 in data set [1] (Human immunodeficiency virus 1) turned out to be 64 nM; in data set [2], 17 nM.

The compound `Cc1ncnc(C)c1C(=O)N1C[C@H]2CN(CCC(c3ccccc3)C3CCN(C(=O)NC(C)C)CC3)C[C@H]2C1` (stereo not given in full) gave an IC50 in data set [2] of over 500 nM.

Take `Cc1ncnc(C)c1C(=O)N1C[C@H]2CN(CCC(c3ccccc3)C3CN(S(C)(=O)=O)C3)C[C@H]2C1` (stereo not given in full): the IC50 in [1] (Human immunodeficiency virus 1) is over 625 nM; in [2] it was 52 nM.

Consider `Cc1cc(C#N)nc(C)c1C(=O)N1C[C@H]2CN(CCC(c3ccccc3)C3CCN(S(C)(=O)=O)CC3)C[C@H]2C1` (stereo not given in full), for which, in [1] (Human immunodeficiency virus 1), the IC50 amounted to 4 nM.

As for `Cc1cc(=O)oc(C)c1C(=O)N1C[C@H]2CN(CCC(c3ccccc3)C3CCN(S(C)(=O)=O)CC3)C[C@H]2C1` (stereo not given in full), the IC50 in data set [1] (Human immunodeficiency virus 1) was determined as 37 nM; in [2] it was 27 nM.

Turning to `Cc1ncnc(C)c1C(=O)N1C[C@H]2CN(CCC(c3ccccc3)C3CCN(S(=O)(=O)C(C)C)CC3)C[C@H]2C1` (stereo not given in full), the IC50 in data set [1] (Human immunodeficiency virus 1) was 48 nM; in data set [2], 47 nM.

Regarding `Cc1ncnc(C)c1C(=O)N1C[C@H]2CN(CCC(c3ccccc3)C3CCN(S(C)(=O)=O)CC3)C[C@H]2C1` (stereo in doubt; 42), the IC50 in [1] is over 5000 nM; in data set [2], over 500 nM.

For `Cc1ncnc(C)c1C(=O)N1C[C@H]2CN(CCC(c3ccccc3)C3CCN(S(=O)(=O)CC(F)(F)F)CC3)C[C@H]2C1` (stereo not given in full), the IC50 in data set [1] (Human immunodeficiency virus 1) was determined as 207 nM; in data set [2], 48 nM.

As for `Cc1ncnc(C)c1C(=O)N1C[C@H]2CN(CCC(c3cccc(F)c3)C3CN(S(=O)(=O)C4CC4)C3)C[C@H]2C1` (stereo not given in full), the IC50 came to 156 nM in data set [1] (Human immunodeficiency virus 1) and 39 nM in [2].

`Cc1ncnc(C)c1C(=O)N1C[C@H]2CN(CCC(c3ccccc3)C3CCN(S(=O)(=O)C4CCCC4)CC3)C[C@H]2C1` (stereo not given in full): the figures for the IC50 in [1] (Human immunodeficiency virus 1) and in data set [2] were 59 nM and 23 nM, respectively.

Turning to `Cc1ncnc(C)c1C(=O)N1C[C@H]2CN(CCC(c3ccccc3)C3CN(S(=O)(=O)C(C)C)C3)C[C@H]2C1` (stereo not given in full), the results for the IC50 in data set [1] (Human immunodeficiency virus 1) and in data set [2] were 100 nM and 23 nM, respectively.

Turning to `Cc1ncnc(C)c1C(=O)N1C[C@H]2CN(CCC(c3ccccc3)C3CCN(S(=O)(=O)C4CC4)CC3)C[C@H]2C1` (stereo not given in full), the values for the IC50 in data set [1] (Human immunodeficiency virus 1) and in data set [2] were 71 nM and 27 nM, respectively.

`Cc1ncnc(C)c1C(=O)N1C[C@H]2CN(CCC(c3ccccc3)C3CN(C(=O)C4CCCC4)C3)C[C@H]2C1` (stereo not given in full) had an IC50 in [2] of 207 nM.

For the compound `Cc1ncnc(C)c1C(=O)N1C[C@H]2CN(CCC(c3cccc(F)c3)C3CCN(S(C)(=O)=O)CC3)C[C@H]2C1` (stereo in doubt; 35), the IC50 in data set [1] (Human immunodeficiency virus 1) stood at 16 nM; in data set [2], 44 nM.
